The values that follow come from PMC12298883, “Discovery of Cyclopentane-Based Phospholipids as Miltefosine Analogs with Superior Potency and Enhanced Selectivity Against Naegleria fowleri” (Pharmaceuticals, 2025).

Data set [1] deals with N. fowleri trophozoites. The data set can be described thus: JC-1 mitochondrial membrane potential assay. The class given is cell-based, Naegleria fowleri. Particulars: at IC90, 48 h. The method, then: To determine whether the apoptotic death of N. fowleri induced by compounds 2a, 3b and 3d is associated with mitochondrial dysfunction, the mitochondrial membrane potential (ΔΨm) was assessed using a JC-1 assay. The potential difference across the membrane in functioning mitochondria leads to the accumulation of cationic lipophilic fluorescent JC-1 molecules, forming red fluorescence (J-aggregate). Mitochondrial dysfunction results in the loss of mitochondrial membrane potential, leading to the transition from J-aggregates to monomers (green fluorescence). […] The absence of green and strong red fluorescence in untreated amoebae indicates healthy, functional mitochondria maintaining their ΔΨm. The shift to predominantly green fluorescence upon treatment with miltefosine, as well as compounds 2a, 3b and 3d, signifies a loss of ΔΨm, a critical early event in the intrinsic apoptotic pathway (Figure 7). Disruption of ΔΨm leads to the release of pro-apoptotic factors from the mitochondria, triggering the caspase cascade and, ultimately cell death. This observation aligns with the previous finding of DNA fragmentation and membrane compromise, further solidifying the apoptotic mechanism of these compounds.
Figure 7 Disruption of mitochondrial functions in N. fowleri. Mitochondrial membrane potential changes. Aggregate form (RFP channel, Ex/Em = 550/650 nm), implying healthy mitochondria, was found in N. fowleri trophozoites treated with 0.1% DMSO (NC), while monomer (GFP channel, Ex/Em = 490/525 nm) indicating the collapse of mitochondrial membrane potential was increased in treated amoebae. Miltefosine (MF) was included as a positive control drug. Images were representatives of the cell population in three individual experiments. Size bar: 10 µm.
The electrochemical gradient changes across the mitochondrial membrane in N. fowleri upon treatment of compounds 2a, 3b and 3d were measured using the JC-1 Mitochondrial Membrane Potential Assay Kit (Abcam, Cambridge, UK). The amoeba trophozoites (5 × 10^4 cells/well) were seeded in a 96-well black/clear bottom plate and incubated with compounds 2a, 3b or 3d (IC90) at 37 °C for 48 h. The JC-1 assay was conducted as described previously. The amoebae treated with Nelson’s medium containing 0.1% DMSO and miltefosine (IC90) were used as negative and positive controls, respectively.

The subject of data set [2] is C6 glial cells. The data set can be described thus: Cytotoxicity assay for C6 cells (CellTiter-Blue). It counts as cell-based. Particulars: C6 rat glial cells, viability; mean ± SD. The method, then: A viability assay was performed to evaluate the inhibitory activity of the tested compounds by determining their IC50 values against N. fowleri, using miltefosine as a reference drug. To assess the selectivity of the tested compounds relative to miltefosine, cytotoxic values that reduced the viability of C6 glial cells by 50% were established.
N. fowleri Carter NF69 strain (ATCC 30215; American Type Culture Collection, Manassas, VA, USA) was used. Amoeba trophozoites were cultured and maintained in Nelson’s medium containing 5% foetal bovine serum (FBS; Gibco, Grand Island, NY, USA) and 1% penicillin/streptomycin (P/S; Gibco, Grand Island, NY, USA) at 37 °C [56]. C6 rat glial cells (C6 cells; ATCC CCL-107) were cultured in Dulbecco’s Modified Eagle’s Medium (DMEM; Gibco, Grand Island, NY, USA) supplemented with 10% FBS (Gibco, Grand Island, NY, USA) and 1% P/S (Gibco, Grand Island, NY, USA) at 37 °C in a humidified incubator under 5% CO2 atmosphere.
The potential cytotoxicity of tested compounds and miltefosine in C6 cells was analysed. The cells were seeded in a 96-well microplate (Thermo Fisher Scientific; 2 × 10^4 cells/well), respectively, and incubated overnight until 80% confluent. Serially diluted tested compounds and miltefosine were treated to the cells as described above. Morphological changes of the cells were observed by microscopic examination. Cell viability was determined using the CellTiter-Blue® Cell viability assay (Promega, […], USA). The cytotoxic concentrations 50 (CC50) of tested compounds and miltefosine were calculated using GraphPad Prism 9.1.0 software (GraphPad Software, San Diego, CA, USA). The […] (SI) was determined by the ratio between CC50 and IC50. Cells treated with 0.1% DMSO, which was confirmed not to alter the morphology of the cells by microscopic examination, were used as controls with 100% cell viability.
On the technique in general: The colour change of resazurin is a common sign of viable cells or microbes.

For the molecule `CCCCCCCCCCCCCO[C@@H]1CCC[C@H]1COP(=O)([O-])OCC[N+](C)(C)C` [Compound 2a], the “mitochondrial membrane potential (ΔΨm), JC-1” value in data set [1] is reported as “loss of ΔΨm”.

Take `CCCCCCCCCCCCCOC[C@@H]1CCC[C@H]1OP(=O)([O-])OCC[N+](C)(C)C` [Compound 3b]: the “mitochondrial membrane potential (ΔΨm), JC-1” value in data set [1] was “loss of ΔΨm”.

As for `CCCCCCCCCCCCCCCCCCCCCCOC[C@@H]1CCC[C@H]1OP(=O)([O-])OCC[N+](C)(C)C` [Compound 3d], the “mitochondrial membrane potential (ΔΨm), JC-1” value in data set [1] is listed as “loss of ΔΨm”.

With `CCCCCCCCCCCCCCCCOP(=O)([O-])OCC[N+](C)(C)C` [Miltefosine], half-maximal cytotoxicity in data set [2] (CC50) was put at 158.9 ± 1.49 µM. The “mitochondrial membrane potential (ΔΨm), JC-1” value in data set [1] is recorded as “loss of ΔΨm”.
